Biological target: T1, Human autotaxin enzyme (Homo sapiens, UniProt Q13822)
T1 construct: purchased R&D System
Assay: Evaluation of autotaxin inhibitor, Method C (18:0 Lyso PC substrate, choline assay, Resorufin fluorescence)
Type: biochemical
Conditions: Method C (Test Example 3), read-out: Inhibitory activity (enzyme inhibitory activity, IC50)
Method: Test Example 3 (Method C) Evaluation of Autotaxin Inhibitor
Solution B containing 100 mM Tris-HCl buffer (pH7.5), 150 mM NaCl, 5 mM MgCl2, and 0.05% Triton X-100 was prepared. Human autotaxin enzyme (purchased from R&D System) was diluted with Solution B, and 2.5 μl of which was added to a solution of test compound in DMSO. Furthermore, 2.5 μl of 200 μM 18:0 Lyso PC (purchased from Avanti Polar Lipids) in Solution B was added and allowed to react at room temperature for 2 hours. After completion of the reaction, 15 μl of the coline assay reagent (100 mM Tris-HCl buffer (pH7.5), 5 mM MgCl2, 77 μg/ml coline oxidase, 10 μg/ml peroxydase, 25 μM 10-acetyl-3,7-dihydroxyphenoxazine, and excess autotaxin inhibitor) was added and allowed to react at room temperature for 20 minutes. The fluorescent dye Resorufin, which was produced by the reaction, was detected. The fluorescence was detected using ViewLux (PerkinElmer, Inc.) with a excitation wavelength of 531 nm and a fluorescence wavelength of 598 nm.
The percent inhibition of the test compound was calculated by assuming the sample with no test compound as 0% inhibition and the sample with no enzyme as 100% inhibition, and the percent inhibitions at different concentrations of the test compound were plotted to obtain a concentration-dependent curve.

| SMILES | IC50 [nM] |
| --- | --- |
| CCCCCC1CNC(=O)c2cc(-c3ccc(Cl)cc3)nn21 (centres unmarked) [Compound I-0001] | ≥ 1000 |
| CCCCCC1CN(CC(=O)OCC)C(=O)c2cc(-c3ccc(Cl)cc3)nn21 (centres unmarked) [Compound I-0002] | 10 to 100 |
| CCCCCC1CN(CC(=O)O)C(=O)c2cc(-c3ccc(Cl)cc3)nn21 (centres unmarked) [Compound I-0003] | ≥ 1000 |
| CCCCCC1CN(CC(=O)N2CCC(C(=O)OCC)CC2)C(=O)c2cc(-c3ccc(Cl)cc3)nn21 (centres unmarked) [Compound I-0004] | 10 to 100 |
| CCCCCC1CN(CNC(=O)OC(C)(C)C)C(=O)c2cc(-c3ccc(Cl)cc3)nn21 (centres unmarked) [Compound I-0005] | 100 to 1000 |
| CCCCCC1CN(CCO)C(=O)c2cc(-c3ccc(Cl)cc3)nn21 (centres unmarked) [Compound I-0006] | 100 to 1000 |
| CCCCCC1CN(CC(=O)N2CCC(C(=O)O)CC2)C(=O)c2cc(-c3ccc(Cl)cc3)nn21 (centres unmarked) [Compound I-0007] | < 10 |
| CCCCCC1CN(CNC(C)=O)C(=O)c2cc(-c3ccc(Cl)cc3)nn21 (centres unmarked) [Compound I-0008] | 10 to 100 |
| CCOC(=O)CN1C(=O)c2cc(-c3ccc(Cl)cc3)nn2[C@H]2CCC[C@H]21 [Compound I-0009] | 100 to 1000 |
| CCOC(=O)CN1C(=O)c2cc(-c3ccc(Cl)cc3)nn2[C@@H]2CCC[C@@H]21 [Compound I-0010] | ≥ 1000 |
| CCOC(=O)C1CCN(C(=O)CN2C(=O)c3cc(-c4ccc(Cl)cc4)nn3[C@@H]3CCC[C@@H]32)CC1 [Compound I-0011] | ≥ 1000 |
| O=C(O)C1CCN(C(=O)CN2C(=O)c3cc(-c4ccc(Cl)cc4)nn3[C@H]3CCC[C@H]32)CC1 [Compound I-0012] | 100 to 1000 |
| O=C(O)C1CCN(C(=O)CN2C(=O)c3cc(-c4ccc(Cl)cc4)nn3[C@@H]3CCC[C@@H]32)CC1 [Compound I-0013] | ≥ 1000 |
| CCOC(=O)CN1CC(C)(C)n2nc(-c3ccc(Cl)cc3)cc2C1=O [Compound I-0014] | ≥ 1000 |
| CCOC(=O)C1CCN(C(=O)CN2CC(C)(C)n3nc(-c4ccc(Cl)cc4)cc3C2=O)CC1 [Compound I-0015] | ≥ 1000 |
| CC1(C)CN(CC(=O)N2CCC(C(=O)O)CC2)C(=O)c2cc(-c3ccc(Cl)cc3)nn21 [Compound I-0016] | ≥ 1000 |
| CCOC(=O)CN1CC(CC)n2nc(-c3ccc(Cl)cc3)cc2C1=O (centres unmarked) [Compound I-0017] | ≥ 1000 |
| CCOC(=O)CN1CC(C2CC2)n2nc(-c3ccc(Cl)cc3)cc2C1=O (centres unmarked) [Compound I-0018] | ≥ 1000 |
| CCOC(=O)CN1C[C@H](C)n2nc(-c3ccc(Cl)cc3)cc2C1=O [Compound I-0019] | ≥ 1000 |
| CCOC(=O)CN1C[C@@H](C)n2nc(-c3ccc(Cl)cc3)cc2C1=O [Compound I-0020] | ≥ 1000 |
| CCOC(=O)CN1C[C@H](c2ccccc2)n2nc(-c3ccc(Cl)cc3)cc2C1=O [Compound I-0021] | ≥ 1000 |

| SMILES | IC50 [nM] |
| --- | --- |
| CCOC(=O)CN1CC(C(C)C)n2nc(-c3ccc(Cl)cc3)cc2C1=O (centres unmarked) [Compound I-0022] | ≥ 1000 |
| CCOC(=O)CN1CC(CC(F)(F)F)n2nc(-c3ccc(Cl)cc3)cc2C1=O (centres unmarked) [Compound I-0023] | ≥ 1000 |
| O=C1NCC(COCc2ccccc2)n2nc(-c3ccc(Cl)cc3)cc21 (centres unmarked) [Compound I-0024] | ≥ 1000 |
| CCOC(=O)CN1CC(Cc2ccccc2)n2nc(-c3ccc(Cl)cc3)cc2C1=O (centres unmarked) [Compound I-0025] | 100 to 1000 |
| CCOC(=O)CN1CC(COCc2ccccc2)n2nc(-c3ccc(Cl)cc3)cc2C1=O (centres unmarked) [Compound I-0026] | ≥ 1000 |
| CCOC(=O)CN1C(=O)c2cc(-c3ccc(Cl)cc3)nn2C2COCC21 (centres unmarked) [Compound I-0027] | ≥ 1000 |
| O=C(O)C1CCN(C(=O)CN2C(=O)c3cc(-c4ccc(Cl)cc4)nn3C3COCC32)CC1 (centres unmarked) [Compound I-0028] | ≥ 1000 |
| O=C(O)C1CN(C(=O)CN2C(=O)c3cc(-c4ccc(Cl)cc4)nn3C3COCC32)C1 (centres unmarked) [Compound I-0029] | ≥ 1000 |
| CCCCCC1CN(CC(=O)N2CCCCC2Cc2ccccc2)C(=O)c2cc(-c3ccc(Cl)cc3)nn21 (centres unmarked) [Compound I-0030] | ≥ 1000 |
| CCCCCCC1CCCN1C(=O)CN1CC(CCCCC)n2nc(-c3ccc(Cl)cc3)cc2C1=O (centres unmarked) [Compound I-0031] | ≥ 1000 |
| CCCCCC1CN(CC(=O)N2CCC(Cc3ccccc3)C2)C(=O)c2cc(-c3ccc(Cl)cc3)nn21 (centres unmarked) [Compound I-0032] | 100 to 1000 |
| CCCCCC1CN(CC(=O)N2CCC(C(N)=O)CC2)C(=O)c2cc(-c3ccc(Cl)cc3)nn21 (centres unmarked) [Compound I-0033] | ≥ 1000 |
| CCCCCC1CN(CC(=O)N2CCC(N(C)C)C2)C(=O)c2cc(-c3ccc(Cl)cc3)nn21 (centres unmarked) [Compound I-0034] | ≥ 1000 |
| CCCCCC1CN(CC(=O)N2CCC(O)C2)C(=O)c2cc(-c3ccc(Cl)cc3)nn21 (centres unmarked) [Compound I-0035] | 100 to 1000 |
| CCCCCC1CN(CC(=O)N2CCC(c3ccccc3)CC2)C(=O)c2cc(-c3ccc(Cl)cc3)nn21 (centres unmarked) [Compound I-0036] | 10 to 100 |
| CCCCCC1CN(CC(=O)N2CCNC(=O)C2)C(=O)c2cc(-c3ccc(Cl)cc3)nn21 (centres unmarked) [Compound I-0037] | 10 to 100 |
| CCCCCC1CN(CC(=O)NCC(=O)N(C)C)C(=O)c2cc(-c3ccc(Cl)cc3)nn21 (centres unmarked) [Compound I-0038] | 100 to 1000 |
| CCCCCC1CN(CC(=O)N2CCC(CC(C)C)C2)C(=O)c2cc(-c3ccc(Cl)cc3)nn21 (centres unmarked) [Compound I-0039] | 100 to 1000 |
| CCCCCC1CN(CC(=O)N2CCCC2CO)C(=O)c2cc(-c3ccc(Cl)cc3)nn21 (centres unmarked) [Compound I-0040] | 100 to 1000 |
| CCCCCC1CN(CC(=O)N2CCCCC2C(=O)N2CCCCC2)C(=O)c2cc(-c3ccc(Cl)cc3)nn21 (centres unmarked) [Compound I-0041] | 10 to 100 |
| CCCCCC1CN(CC(=O)Nc2ccccc2C(=O)O)C(=O)c2cc(-c3ccc(Cl)cc3)nn21 (centres unmarked) [Compound I-0042] | 100 to 1000 |

| SMILES | IC50 [nM] |
| --- | --- |
| CCCCCC1CN(CC(=O)N(C)CC(=O)O)C(=O)c2cc(-c3ccc(Cl)cc3)nn21 (centres unmarked) [Compound I-0043] | 10 to 100 |
| CCCCCC1CN(CC(=O)NCCC(=O)O)C(=O)c2cc(-c3ccc(Cl)cc3)nn21 (centres unmarked) [Compound I-0044] | 10 to 100 |
| CCCCCC1CN(CC(=O)NCc2ccc(C(=O)O)cc2)C(=O)c2cc(-c3ccc(Cl)cc3)nn21 (centres unmarked) [Compound I-0045] | 100 to 1000 |
| CCCCCC1CN(CC(=O)NCCCCCC(=O)O)C(=O)c2cc(-c3ccc(Cl)cc3)nn21 (centres unmarked) [Compound I-0046] | 100 to 1000 |
| CCCCCC1CN(CC(=O)NCCCC(=O)O)C(=O)c2cc(-c3ccc(Cl)cc3)nn21 (centres unmarked) [Compound I-0047] | 10 to 100 |
| CCCCCC1CN(CC(=O)N2CCC(CC(=O)O)CC2)C(=O)c2cc(-c3ccc(Cl)cc3)nn21 (centres unmarked) [Compound I-0048] | 10 to 100 |
| CCCCCC1CN(CC(=O)Nc2cccc(C(=O)O)c2)C(=O)c2cc(-c3ccc(Cl)cc3)nn21 (centres unmarked) [Compound I-0049] | 10 to 100 |
| CCCCCC1CN(CC(=O)N2CCCC(C(=O)O)C2)C(=O)c2cc(-c3ccc(Cl)cc3)nn21 (centres unmarked) [Compound I-0050] | 10 to 100 |
| CCCCCC1CN(CC(=O)NC2CCC[C@@H]2C(=O)OCC)C(=O)c2cc(-c3ccc(Cl)cc3)nn21 (some centres unmarked) [Compound I-0051] | 100 to 1000 |
| CCCCCC1CN(CC(=O)N2CCCCC2C(=O)O)C(=O)c2cc(-c3ccc(Cl)cc3)nn21 (centres unmarked) [Compound I-0052] | < 10 |
| CCCCCC1CN(CC(=O)N2CCCC(CC(=O)O)C2)C(=O)c2cc(-c3ccc(Cl)cc3)nn21 (centres unmarked) [Compound I-0053] | 10 to 100 |
| CCCCCC1CN(CC(=O)NC[C@H]2CC[C@H](C(=O)O)CC2)C(=O)c2cc(-c3ccc(Cl)cc3)nn21 (some centres unmarked) [Compound I-0054] | 100 to 1000 |
| CCCCCC1CN(CC(=O)NC(Cc2ccccc2)C(=O)O)C(=O)c2cc(-c3ccc(Cl)cc3)nn21 (centres unmarked) [Compound I-0055] | < 10 |
| CCCCCC1CN(CC(=O)Nc2cccc(CC(=O)O)c2)C(=O)c2cc(-c3ccc(Cl)cc3)nn21 (centres unmarked) [Compound I-0056] | 10 to 100 |
| CCCCCC1CN(CC(=O)NCCCCCCC(=O)O)C(=O)c2cc(-c3ccc(Cl)cc3)nn21 (centres unmarked) [Compound I-0057] | 100 to 1000 |
| CCCCCC1CN(CC(=O)Nc2ccc(CCC(=O)O)cc2)C(=O)c2cc(-c3ccc(Cl)cc3)nn21 (centres unmarked) [Compound I-0058] | 100 to 1000 |
| CCCCCC1CN(CC(=O)NCC(=O)O)C(=O)c2cc(-c3ccc(Cl)cc3)nn21 (centres unmarked) [Compound I-0059] | 10 to 100 |
| CCCCCC1CN(CC(=O)NC2CCC(C(=O)O)CC2)C(=O)c2cc(-c3ccc(Cl)cc3)nn21 (centres unmarked) [Compound I-0060] | 100 to 1000 |
| CCCCCC1CN(CC(=O)NCCCCC(=O)O)C(=O)c2cc(-c3ccc(Cl)cc3)nn21 (centres unmarked) [Compound I-0061] | 10 to 100 |
| CCCCCC1CN(CC(=O)NC(CCC)C(=O)O)C(=O)c2cc(-c3ccc(Cl)cc3)nn21 (centres unmarked) [Compound I-0062] | < 10 |

Reference: patent US10189843B2, “Fused pyrazole derivative having autotaxin inhibitory activity” (The University of Tokyo, priority 2014, dated 2019)
